# Laboratory results as given in patent US7795505B2, “Herbicide-resistance gene and utilization thereof” (Hokko Chemical Industry Co., Ltd., priority 2004, dated 2010).
# Key:
# [1] = tested on: enzyme capable of acetylating PPT of Streptomyces sp. AB3534 strain (pUC18-B2); test: Acetylation reaction with crude enzyme solution from E. coli transformed with pUC18-B2 (absorbance at 412 nm); format: biochemical; details: substrate specificity, vector pUC18-B2 (present invention)
# Description: (§1) Escherichia coli transformed with pUC18-B2 having the herbicide-resistance gene of the present invention was inoculated into a liquid medium containing 50 ml of LB medium and 50 mg/L ampicillin, and cultured at 37° C. for 1 hour, and 50 μl of a 1 M thiogalactopyranoside solution was added to the culture solution, followed by culture at 37° C. for 3 hours. After completion of the culture, the culture solution was centrifuged at 5,000 rpm for 15 minutes to collect bacterial cells, and the cells were washed once with physiological saline. Then, the washed bacterial cells were suspended in 2 ml of a 20 mM Trisbuffer (pH 8.0) solution and disrupted by ultrasonic waves at 4° C. The solution was centrifuged at 15,000 rpm for 15 minutes to collect the supernatant. The supernatant was diluted 10-fold with 20 mM Tris buffer (pH 8.0) to prepare a crude enzyme solution. Then, 2 μl of the crude solution was added to 98 μl of a reaction solution, and the mixture was allowed to react at 28° C. for 1 hour, followed by measurement of the absorbance at 412 nm to measure the acetylation reaction. […]
# (§2) The optimum pH and substrate specificity (Km value) to PPT and a structural homologue thereof, methionine sulfone (MS) were measured, and the results are shown in Table 2.
# [2] = tested on: enzyme capable of acetylating PPT derived from actinomycete AB2253 strain (pUC19-AB); test: Acetylation reaction with crude enzyme solution from E. coli transformed with pUC19-AB; format: biochemical; details: substrate specificity, vector pUC19-AB (control)
# Description: as §1, §2
# [3] = tested on: Streptomyces lividans introduced with hybrid plasmid pBRB1; test: Bialaphos resistance of transformants; format: cell-based; details: all transformants with pBRB1
# Description: The hybrid plasmid mixture thus obtained was used to transform a protoplast of Streptomyces lividans. The protoplast was regenerated, and then transformed strains having a bialaphos resistance were selected on a selective medium containing 10 mg/L bialaphos. The Streptomyces lividans used above as a host is a bacterial strain obtained by removing a plasmid pIJ703 from Streptomyces lividans 3131 by protoplastization and regeneration. Streptomyces lividans 3131 was obtained from Department of Antibiotics, National Institute of Health in 1985 (“The Journal of Antibiotics” 1985, vol. 38, pp. 390-400). […]
# From the resultant two bialaphos-resistant strains, plasmids were extracted in accordance with a known method (“Current Topics in Microbiology and Immunology” 1982, vol. 96, pp. 69). […] These plasmids derived from the two strains were separately cleaved with a restriction enzyme BglII and analyzed by agarose electrophoresis. In both cases, the electrophoresis detected not only the DNA fragment of pIJ703 used in the vector but also an about 5.7-kb DNA fragment. […]
# [4] = tested on: Escherichia coli transformed with pUC18-B1; test: Growth on M9 agar medium containing bialaphos; format: cell-based; details: 1 mM IPTG, 10 mg/L bialaphos
# Description: The about 1.2-kb EcoRI-BglII fragment that had been confirmed to have a bialaphos-resistance gene was ligated to the EcoRI-BamHI site of a commercially available plasmid vector pUC18, and the resultant plasmid was introduced into Escherichia coli, to thereby yield a transformed Escherichia coli strain having a resistance to bialaphos. A deletion plasmid was prepared by using the SmaI site in the about 1.2-kb EcoRI, BglII fragment and was used to transform Escherichia coli, and as a result, the herbicide-resistance gene of the present invention was confirmed to be present on an about 0.6-kb EcoRI-SmaI fragment. 2 μg of the hybrid plasmid pBRB1 was cleaved with restriction enzymes EcoRI and BglII (20 units each) at 37° C. for 2 hours and subjected to agarose electrophoresis, and only a 1.2 kb-fragment was cut and purified using GeneClean. On the other hand, 2 μg of the plasmid pUC18 was cleaved with EcoRI and BamHI (20 units each) at 37° C. for 2 hours, and the fragments were purified using GeneClean (manufactured by Bio101). […]
# That is, the plasmid pUC18-B1 was cleaved with restriction enzymes EcoRI and SmaI (20 units each) at 37° C. for 2 hours and subjected to agarose electrophoresis, and only a 0.6 kb-fragment was cut and purified using GeneClean. […] The nucleotide sequence was determined by custom DNA sequencing service (Hokkaido System Science Co., Ltd.).
# [5] = tested on: Escherichia coli transformed with pUC18-B2; test: Growth on M9 agar medium containing bialaphos; format: cell-based; details: 1 mM IPTG, 10 mg/L bialaphos
# Description: That is, the plasmid pUC18-B1 was cleaved with restriction enzymes EcoRI and SmaI (20 units each) at 37° C. for 2 hours and subjected to agarose electrophoresis, and only a 0.6 kb-fragment was cut and purified using GeneClean. On the other hand, 2 μg of the plasmid pUC18 was cleaved with EcoRI and SmaI (20 units each) at 37° C. for 2 hours, and the fragments were purified using GeneClean (manufactured by Bio101). The DNA fragments were allowed to react using Takara Ligation kit at 16° C. for 3 hours, to thereby yield a solution of the plasmid pUC18-B2 obtained by integrating the about 0.6-kb EcoRI, SmaI-cleaved DNA fragment derived from pBRB1 into the EcoRI, SmaI-cleaved DNA fragment of the plasmid pUC18. […] The nucleotide sequence was determined by custom DNA sequencing service (Hokkaido System Science Co., Ltd.).
# [6] = tested on: CP(=O)(O)CC[C@H](N)C(=O)O; test: cells, lysate or membranes named; details: other: substrate specificity; crude enzyme, vector pUC19-SH (control); pH 8.0
# Description: as §1, §2
Molecule,Km [1] [µM],Km [2] [µM],further results
"CP(=O)(O)CC[C@H](N)C(=O)O (racemic) [PPT, phosphinothricin]",2460,14300,
"CS(=O)(=O)CC[C@H](N)C(=O)O [MS, methionine sulfone]",13000,2200,
C[C@H](NC(=O)[C@H](C)NC(=O)[C@@H](N)CCP(C)(=O)O)C(=O)O [bialaphos],,,resistance of transformants to bialaphos [3]: all the resultant transformants were found to have a resistance to bialaphos; growth on medium containing bialaphos [4]: found to grow; growth on medium containing bialaphos [5]: found to grow
enzyme capable of acetylating PPT derived from Streptomyces hygroscopicus (pUC19-SH) (Streptomyces hygroscopicus),,,Km [6]: 90 µM
